In article PMC2063833 (The Journal of Cell Biology, 2006):
pEC50: −log10 of the molar value.

Target: T1, Ssy1p (Saccharomyces cerevisiae, UniProt Q03770)
T1 sequence (Q03770 1-852): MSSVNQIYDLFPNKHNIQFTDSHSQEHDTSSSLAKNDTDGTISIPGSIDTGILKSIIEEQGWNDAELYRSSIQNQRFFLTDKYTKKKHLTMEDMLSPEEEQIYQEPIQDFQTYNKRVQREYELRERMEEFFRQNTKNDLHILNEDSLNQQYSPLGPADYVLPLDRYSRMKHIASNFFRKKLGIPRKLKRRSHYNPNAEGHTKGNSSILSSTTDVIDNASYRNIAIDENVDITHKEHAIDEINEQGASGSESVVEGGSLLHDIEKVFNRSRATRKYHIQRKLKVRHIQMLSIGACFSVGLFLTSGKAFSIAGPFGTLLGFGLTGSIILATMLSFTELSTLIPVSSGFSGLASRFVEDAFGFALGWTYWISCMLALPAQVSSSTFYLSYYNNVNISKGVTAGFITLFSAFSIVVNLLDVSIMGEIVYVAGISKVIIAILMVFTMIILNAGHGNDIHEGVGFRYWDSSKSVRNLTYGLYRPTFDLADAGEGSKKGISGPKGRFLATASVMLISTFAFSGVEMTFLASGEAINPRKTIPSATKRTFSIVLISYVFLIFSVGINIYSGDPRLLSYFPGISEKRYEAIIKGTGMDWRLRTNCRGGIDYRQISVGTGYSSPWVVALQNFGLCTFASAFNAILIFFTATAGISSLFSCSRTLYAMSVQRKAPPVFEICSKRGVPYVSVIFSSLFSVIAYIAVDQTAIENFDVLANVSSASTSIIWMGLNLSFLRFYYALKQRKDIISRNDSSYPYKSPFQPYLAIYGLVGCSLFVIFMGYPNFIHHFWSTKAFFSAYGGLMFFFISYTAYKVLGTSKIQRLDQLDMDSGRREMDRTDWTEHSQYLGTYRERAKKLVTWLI
Test: Ssy1p signaling measured as Stp1p processing
Assay type: cell-based
Details: for pEC50: EC50 for sensing of extracellular amino acid, grown in SD

SMILES	pEC50 (experiment 1, strain M5447 (ura3 gap1Δ), Leuc 0.5 μmol/g DW, mean of triplicate)	pEC50 (experiment 5, strain M5568 (ura3 gap1Δ bap2Δ tat1Δ bap3Δ agp1::URA3), Leuc 1 μmol/g DW)	pEC50 (experiment 9, strain M5446 (ura3 gap1Δ LEU4-fbr), Leuc 12 μmol/g DW)	Effect on EC50 of adding isoamyl alcohol (isoamyl alcohol at relevant concentrations, unpublished data)
CC(C)C[C@H](N)C(=O)O [Leu, leucine]	4.89	4.82	4.52	–
CC(C)CCO [isoamyl alcohol]	–	–	–	no significant effect
